Molecular target: T1, human S1P1 (Homo sapiens, UniProt P21453)
T1 construct: CHO-K1 Gαqi5 cells expression full-length human S1P1; expressed in transfected cells; host or cells: CHO-K1 Gαqi5 cells (membranes)
Assay: GTPγS binding assay (scintillation proximity assay, S1P1 membranes)
Format: biochemical
Conditions: membranes from CHO-K1 Gαqi5 cells expressing full-length human S1P1; GTPγ35S; 60 minutes incubation
Procedure: Example 4: GTPyS Binding Assay
S1P1 membrane is prepared from CHO-K1 Gαqi5 cells expression full-length human S1P1. Scintillation proximity assay (SPA) is performed by incubating membranes, GTPγ^35S, and compounds at various concentrations for 60 minutes. Wheat germ agglutinin-coated SPA beads are added and incubated for 60 minutes before centrifugation and scintillation counting.

T1 sequence (P21453 whole entry): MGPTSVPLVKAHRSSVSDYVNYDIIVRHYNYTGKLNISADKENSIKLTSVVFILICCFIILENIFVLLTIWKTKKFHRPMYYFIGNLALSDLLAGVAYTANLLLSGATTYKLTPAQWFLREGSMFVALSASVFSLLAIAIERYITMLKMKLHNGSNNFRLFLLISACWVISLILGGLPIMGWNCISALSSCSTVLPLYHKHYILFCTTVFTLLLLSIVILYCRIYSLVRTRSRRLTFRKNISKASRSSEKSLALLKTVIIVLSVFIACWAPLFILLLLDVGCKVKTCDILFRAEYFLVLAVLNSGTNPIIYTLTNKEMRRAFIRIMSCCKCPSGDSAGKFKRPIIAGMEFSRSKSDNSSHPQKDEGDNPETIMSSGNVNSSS

- EC50: < 1 µM
Compound: O=C1CC[C@@H](Oc2cc(Cl)c(-c3noc(-c4cn5cc(C(F)(F)F)cc(Cl)c5n4)n3)cc2Cl)CN1 [Compound 1, (R)-5-(2,5-dichloro-4-(5-(8-chloro-6-(trifluoromethyl)imidazo[1,2-a]pyridin-2-yl)-1,2,4-oxadiazol-3-yl)phenoxy)piperidin-2-one]

Reference: US20260226044A1, “PREPARATION OF AN S1P RECEPTOR MODULATOR” (Oppilan Pharma Limited, priority 2023, published 2026)
